Experimental data taken from US20130197069A1, “METHODS FOR TREATING STRESS INDUCED EMOTIONAL DISORDERS” (MASSACHUSETTS INSTITUTE OF TECHNOLOGY, priority 2007, published 2013).
Entries after “also recorded” stand apart in the source; their conditions may differ. Where no end group is shown, it is not given here.

Legend:
Mice (Balb/c) [1] = experiment: Extinction of contextual freezing behavior after contextual fear conditioning; type: in vivo
Protocol: Animals: Mice (Balb/c, 12 weeks old) were housed under standard conditions with access to food and water ad libitum. All mice were purchased from Taconic (Germantown, N.Y.). Behavior testing was performed in a way that the mice were either housed in a separated compartment but within the testing room or different rooms were used for housing and testing. In the latter case the mice were brought to the testing room before the procedure. Although it appears that the dynamics of extinction behavior are somewhat variable depending on the employed behavior facility, the trends remain the same in different experiments. All experiments were approved by the corresponding Animal Use and Care Committee.
(§1) Extinction of contextual freezing behavior: Extinction and reminder shock procedures were performed as described before^6. In brief, mice were exposed to contextual fear conditioning (3 min context followed by at mild electric foot shock, 2 s, 0.7 mA). In some experiments a tone (30 s, 10 kHz, 75 dB SPL) was presented for 30 s before the shock. Extinction was performed on consecutive days. An extinction trial consisted of a 3 min re-exposure to the conditioning context.
Surgery/injection: Microcannula were purchased custom made from PlasticOne. The gauge of the guide and injection cannulae was 26 and 28, respectively. To insert cannulae into the dorsal hippocampus the coordinates AP −1.5 mm, lateral 1 mm, depth 2 mm were used as described before^18. To insert cannulae icy the coordinates AP +0.5 mm, lateral 1 mm, depth 2 mm were used. Butyrolactone I and roscovitine were dissolved and injected as described before^18. Rac-1 inhibitor was dissolved in aCSF and delivered bilaterally (0.5 μl/side) over a 1 min period. The correct localization of the cannulae was verified at the end of an experiment by methyleneblue injection. The cis-tronic Herpes Virus expressing GFP and dnPAK-1 or GFP alone was injected into the hippocampus bilaterally (0.5 μl/side) over a 2 min period. DnPAK-1 consisted of the DNA encoding amino acid 83-149 of PAK-1.
To test for a role of Cdk5 activity during extinction of learned fear, mice were implanted with microcannulae into the dorsal hippocampus (i.h.) and trained in the contextual fear conditioning paradigm. Fear conditioning consisted of a 3 min context exposure followed by a single electric foot shock ([…], constant current, 2 s). Subsequently, all mice were subjected to a daily extinction trial (E) on 6 consecutive days (E1-E6). Each extinction trial consisted of a 3 min re-exposure to the conditioned context without presenting the foot-shock again.

PAK-1 = experiment: Immunoblot of PAK-1, PAK-1T212 and PAK-1T423 in hippocampal membrane and cytosolic fractions; type: in vivo, mice
Protocol: (§2) Immunoblot analysis: Immunoblot analysis was performed as described before^19. The antibody detecting pPAK-1Thr212 was used in a 1:250 dilution.
(§3) Anti-PAK-1 was from Santa Cruz (Santa Cruz, Calif.). All other antibodies were used in a 1:1000 dilution. pPAK-1Thr423 (Cell Signaling, Danvers, Mass.) synaptophysin (Sigma, St. Louis, Mo.), GAPDH and Rac-1 were from Upstate (Lake Placid, N.Y.), Cdk5 (J3) and p35 (C-19) were from Santa Cruz.
First, we measured PAK-1 phosphorylation at threonine 212 during extinction because this site is phosphorylated by p35/Cdk5^33. […] We also analyzed the activity of PAK-1 using a phospho-T423 antibody against PAK-1^37 in hippocampal lysates prepared from naïve mice and from mice 0.5 h after E1 or E3 by immunoblotting. We detected a significant increase in membrane associated PAK-1Thr423 levels after E3, when compared to E1 (FIG. 4b).
(§4) Next, we set out experiments to determine if the regulation of PAK-1 activity during extinction depended on the activities of Rac-1 and Cdk5/p35. To this end, lysates prepared from mice that were injected with a Rac-1 inhibitor or vehicle (as described under FIG. 3c) were analyzed by immunoblot. […] Consistently, PAK-1 levels increased in the cytosol of mice treated with Rac-1 inhibitor.
To investigate the impact of Cdk5/p35 activity on PAK-1 function during extinction, mice were implanted with microcannulae into the lateral ventricles and injected with 50 ng butyrolactone I immediately after E1. Because a single injection of butyrolactone I after E1 was sufficient to facilitate extinction (see FIG. 1d), hippocampal lysates were prepared 0.5 h after E1 and analyzed by immunoblotting using PAK-1 antibodies (FIG. 5a). […] In contrast, PAK-1T423 levels increased in lysates obtained from butyrolactone I injected mice (FIG. 5 b, c).

[2] = test system: p35 co-immunoprecipitated with PAK-1; experiment: Co-immunoprecipitation of PAK-1 and p35 from hippocampal lysates; type: in vivo, mice; settings: Rac-1 inhibitor icv; 0.5 h after E3
Protocol: Membrane and cytosolic fractions were prepared form the hippocampus of mice 0.5 h after exposure to E1, E3 or from naïve animals and analyzed for the levels of the Cdk5 substrate PAK-1 by immunoblotting. […] In the cytosolic fraction pPAK-1T423 levels decreased after E1 when compared to naïve mice but increased back to baseline levels after E3. c. Hippocampal cytosolic and membrane fractions were prepared on E3 0.5 h after mice were injected (icv) with either vehicle or Rac-1 inhibitor. […] The same lysates as described under (c) were used to immunoprecipitate PAK-1. An HA antibody served a control for unspecific binding of proteins to the proteinA agarose beads. The precipitates were immunoblotted with antibodies against PAK-1 and p35. […] Error bars indicate S.E.M.
as §4

p35/Cdk5 = experiment: Immunoblot of p35/Cdk5 in hippocampal membrane and cytosolic fractions; type: in vivo, mice; settings: icv 10 μg/μl after E1-E3, fractions 0.5 h after E3
Protocol: as §2, §3
To this end, microcannuale were implanted into the lateral ventricles of mice that were subsequently trained by contextual fear conditioning and exposed to our extinction paradigm. Immediately after E1-E3 mice were injected with a Rac-1 inhibitor^35 (NSC23760; 10 μg/μl) or vehicle. Hippocampal membrane and cytosolic fractions were prepared 0.5 h after E3 and analyzed by immunoblot.

[3] = test system: MAP kinase signaling pathway; experiment: MAP kinase signaling pathway in hippocampus after injection; type: in vivo, mice; settings: 50 ng into hippocampus
Protocol: (§5) In agreement with previous data the recovery of the fear response is rarely complete and may indicate that unlearning and new learning may coexist during extinction^29 30. […] In contrast, when butyrolactone I (50 ng) was administered 3 h after E1, freezing behavior was indistinguishable between butyrolactone I- and vehicle-injected mice (FIG. 1f). We estimated that the employed concentrations of butryrolactone I and roscovitine permit a specific inhibition of Cdk5. However high levels of those drugs may also affect Erk-1/2 kinases^31. […] Moreover, freezing behavior is not generally affected.

hippocampal Cdk5 = target: T1, hippocampal Cdk5 (Mus musculus, UniProt P49615); experiment: Hippocampal Cdk5 activity measured by histone H1 phosphorylation; type: in vivo, mice
T1 construct: from tissue; host or cells: hippocampus of Balb/c mice
Protocol: as §5

Mice (Balb/c) [4] = experiment: Extinction of amygdala-dependent cued fear; type: in vivo; settings: intrahippocampal injection
Protocol: as §1, §5

[5] = test system: Rac1 interaction with Rac1-specific GEFs TrioN, GEF-H1 and Tiam1; settings: Gao et al (2001) J. Biol. Chem. 276 47530; cited from earlier work
[6] = Rac-1 inhibitor icv, 0.5 h after E3, cytosolic fraction
[7] = Rac-1 inhibitor icv, 0.5 h after E3, membrane fraction
[8] = 50 ng immediately after E1, fractions 0.5 h later
[9] = 50 ng immediately after E1, fractions 0.5 h later, listed as Butyrolactone I

T1 sequence (P49615 whole entry): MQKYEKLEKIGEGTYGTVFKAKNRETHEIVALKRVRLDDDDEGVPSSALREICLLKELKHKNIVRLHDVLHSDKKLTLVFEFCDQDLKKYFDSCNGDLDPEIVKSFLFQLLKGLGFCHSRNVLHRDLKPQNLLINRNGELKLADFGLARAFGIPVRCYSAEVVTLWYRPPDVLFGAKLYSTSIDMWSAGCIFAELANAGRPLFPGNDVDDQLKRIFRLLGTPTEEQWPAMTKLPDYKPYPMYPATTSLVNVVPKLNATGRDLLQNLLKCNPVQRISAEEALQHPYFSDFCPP
T1 sequence (P61809 2-307 partner limits assumed): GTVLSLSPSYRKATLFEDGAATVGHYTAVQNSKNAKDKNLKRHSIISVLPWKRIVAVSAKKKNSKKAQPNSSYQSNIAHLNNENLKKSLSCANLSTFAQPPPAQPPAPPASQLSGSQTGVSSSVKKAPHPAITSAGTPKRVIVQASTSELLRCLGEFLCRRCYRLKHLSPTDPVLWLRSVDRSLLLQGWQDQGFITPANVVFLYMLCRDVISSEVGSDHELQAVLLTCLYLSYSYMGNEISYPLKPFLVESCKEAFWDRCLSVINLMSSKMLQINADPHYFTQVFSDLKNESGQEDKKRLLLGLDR

In the case of `CCN(CC)CCCC(C)Nc1nc(C)cc(Nc2ccc3nc(C)cc(N)c3c2)n1` (stereo not drawn) [NSC23760], the “freezing behavior vs. vehicle group” value (Mice (Balb/c) [1]; icv 10 μg/μl immediately after E1-E3) is reported as “significant reduction of freezing behavior; also recorded: reduced freezing”, the “PAK-1 levels in the cytosol vs. vehicle” value (PAK-1; [6]) is reported as “increased” and the “cytosolic PAK-1T212 levels vs. vehicle” value (PAK-1; [6]) is reported as “decreased”. The “membrane associated PAK-1T212 levels vs. vehicle” value (PAK-1; [7]) was “dramatic reduction; also recorded: significant reduction”, the “membrane associated PAK-1 levels vs. vehicle” value (PAK-1; [7]) was “dramatic reduction; also recorded: significant reduction” and the “amount of p35 co-immunoprecipitated with PAK-1 vs. vehicle” value [2] was “reduced amount of p35 co-immunoprecipitated with PAK-1; also recorded: Much less p35 co-immunoprecipitated with PAK-1”. The “membrane associated p35 and Cdk5 levels / distribution vs. vehicle” value (p35/Cdk5) was “dramatic redistribution of membrane associated p35 and Cdk5 to the cytosol” and the “membrane associated p35 and Cdk5 levels / distribution vs. vehicle” value (p35/Cdk5; listed as Rac-1 inhibitor) was “significant reduction of membrane-associated Cdk5/p35”.

With `CC[C@H](CO)Nc1nc(NCc2ccccc2)c2ncn(C(C)C)c2n1` [roscovitine] the “freezing behavior vs. vehicle group” value (Mice (Balb/c) [1]; roscovitine i.h. 50 ng into dorsal hippocampus immediately after E1-E3) was “reduced freezing behavior”.

In the case of `COC(=O)[C@@]1(Cc2ccc(O)c(CC=C(C)C)c2)OC(=O)C(O)=C1c1ccc(O)cc1` [butyrolactone I], the “effect on MAP kinase signaling pathway” value [3] is reported as “did not affect the MAP kinase signaling pathway”, the “freezing behavior / extinction vs. vehicle group” value (Mice (Balb/c) [1]; 12.5 ng i.h. after E1-E3, listed as butyrolactone 1) is reported as “no significant effect on the reduction of freezing behavior” and the “freezing behavior / extinction vs. vehicle group” value (Mice (Balb/c) [1]; 25 ng i.h. after E1-E3) is reported as “Extinction was similar in vehicle and butyrolactone I injected mice”. The “freezing behavior / extinction vs. vehicle group” value (Mice (Balb/c) [1]; 25 ng i.h. after E1-E3, listed as butyrolactone 1) was “no significant effect on the reduction of freezing behavior”, the “freezing behavior / extinction vs. vehicle group” value (Mice (Balb/c) [1]; 50 ng i.h. 3 h after E1) was “indistinguishable” and the “freezing behavior / extinction vs. vehicle group” value (Mice (Balb/c) [1]; 50 ng i.h. 3 h after E1, listed as butyrolacone I) was “no significant effect on extinction”. The “freezing behavior vs. vehicle group” value (Mice (Balb/c) [1]; 50 ng i.h. immediately after E1-E3) was “reduced freezing behavior on E2 and E3”, the “freezing behavior vs. vehicle group” value (Mice (Balb/c) [1]; 50 ng i.h. immediately after E1-E3, listed as butyrolactone 1) was “significantly reduced freezing behavior on E2 and E3” and the “freezing behavior vs. vehicle group” value (Mice (Balb/c) [1]; 50 ng injected 1 h after E1) was “significant reduction of freezing behavior on E2”. For the same compound, the “reinstatement of freezing behavior by reminder shock procedure” value (Mice (Balb/c) [1]; after 50 ng i.h. following E1-E3) was “able to reinstate freezing behavior”, the “freezing behavior during the extinction trial” value (Mice (Balb/c) [1]; intrahippocampal injection 15 min before extinction trial 1 or 2) was “did not affect freezing behavior during the extinction trial” and the “freezing behavior vs. vehicle group” value (Mice (Balb/c) [1]; single injection i.h. 50 ng immediately after E1) was “significantly diminished freezing behavior on the subsequent extinction trials”. For the same compound, the “freezing behavior vs. vehicle group” value (Mice (Balb/c) [1]; single injection i.h. 50 ng immediately after E1, listed as butyrolactone) was “significant reduction of freezing behavior on E2”, the “PAK-1T212 levels in the cytosolic fraction vs. vehicle” value (PAK-1; [8]) was “significantly reduced” and the “PAK-1T212 levels in the membrane fraction vs. vehicle” value (PAK-1; [8]) was “reduced”. For the same compound, the “distribution of total PAK-1 between membrane and cytosol vs. vehicle” value (PAK-1; [8]) was “re-distribution of total PAK-1 from the membrane to the cytosol”, the “PAK-1T212 levels in the cytosolic fraction vs. vehicle” value (PAK-1; [9]) was “decreased” and the “PAK-1T212 levels in the membrane fraction vs. vehicle” value (PAK-1; [9]) was “decreased”. For the same compound, the “distribution of total PAK-1 between membrane and cytosol vs. vehicle” value (PAK-1; 50 ng immediately after E1, fractions 0.5 h later, listed as butyrolactone) was “significant re-distribution of PAK-1 from the membrane to the cytosol”, the “PAK-1T423 levels vs. vehicle” value (PAK-1; 50 ng immediately after E1, fractions 0.5 h later, membrane fraction (FIG. 5c)) was “significantly increased” and the “hippocampal Cdk5 activity (histone H1 phosphorylation)” value (hippocampal Cdk5; 12.5 ng i.h.) was “did not reduce hippocampal Cdk5 activity”. The “hippocampal Cdk5 activity (histone H1 phosphorylation)” value (hippocampal Cdk5; 25 ng i.h.) was “did not reduce hippocampal Cdk5 activity” and the “extinction of amygdala-dependent cued fear” value (Mice (Balb/c) [4]) was “did not affect extinction of amygdala-dependent cued fear”.

For MVDGKPVNLGLWDTAG [Rac1 Inhibitor W56], the “inhibition of Rac1 interaction with Rac1-specific GEFs” value [5] is given as “selectively inhibits”.
